The results in this text go back to US20260151457A1, “Peptides and Fragments for Treating Diabetes and Associated Metabolic Diseases” (Betavive Ltd., priority 2024, published 2026).

Data set [1] can be described thus: Blood concentration of IGF-2 after 40 μg intraperitoneal injection (ELISA). It counts as in vivo, mouse. As to conditions: 240 minute time frame. From the text: Without being bound by this theory, it is believed that IGF-2 binding proteins may initially inactivate the biological activity of free IGF-2. And over time, the bond between IGF-2 and the binding protein may be released, increasing the bioavailability of IGF-2 and leading to a longer term effective treatment.
Background: ELISA stands for enzyme-linked immunosorbent assay.

Another data set relates to STZ-treated mice. Nature of the data set: Intraperitoneal glucose tolerance test on STZ-treated mice treated with IGF-2. In kind it is in vivo. How it is done: In this experiment, four STZ-treated mice were treated with 12,000 μg/kg/day of IGF-2 (four injections of 3000 μg/kg/day) 5 days and two mice were treated for 10 days. A glucose tolerance test was performed 50 days post-treatment with IGF-2 by challenging the treated mice with a 2 grams/kg dose of glucose and determining the blood glucose level over a 180 minute time course. The blood glucose curves of the treated mice were compared to results for a saline control, and normal (nondiabetic) obese and normal (nondiabetic) lean mice based on published literature (Jorgensen et al., J. Am Assoc. Lab. Animal Sci 2017 56 (1): 95-97).

The next data set has as its system mice. Put plainly: Blood glucose concentration kinetics of IGF-2 vs. insulin in a glucose tolerance test. In kind it is in vivo. How it is done: IGF-2 therefore provides an effect that mimics insulin within the body, and that effect is referred to herein as an “insulinomimetic” effect. […] More specifically, when 1 unit of insulin per kg was administered, the recovery in glucose levels began after two hours. But when 800 μg/kg of IGF-2 was administered, the recovery in glucose levels began after six hours. […] In this example, administering IGF-2 can provide better results than administering insulin with respect to blood glucose levels, even when only a single dose was used. Without being bound by this theory, it is possible that the IGF-2 combines with a number of binding proteins in the blood and its active free form is then released slowly from the complex.

Another data set relates to NOD mice. Nature of the data set: Islet cell staining for glucagon and insulin in NOD mice. In kind it is in vivo. The conditions noted are these: NOD mice treated with IGF-2 for 13 weeks. An excerpt: FIG. 30D confirms the results shown in FIG. 30C and provides the number of cells staining positive for insulin in NOD mice treated with IGF-2 (right bar) versus untreated NOD mice (left bar).

The next data set relates to Human pancreatic islets. Nature of the data set: Peptides efficacy on human pancreatic islets (IHC, digital quantitative pathological analysis). In kind it is cell-based. As to conditions: IGF-2 500 nM, Peptide-20 1000 nM, five days. How it is done:
Human pancreatic islets, obtained from Prodo Labs, were cultured in Prodo Labs PIM(S) media and maintained at 37° C. with 5% CO2 to ensure optimal viability. The islets were treated with IGF-2 (500 nM) and Peptide-20 (1000 nM) for five days under continuous exposure. After treatment, islets were collected and fixed in 4% paraformaldehyde (PFA) to preserve cellular and structural integrity. The samples were then processed for formalin-fixed paraffin-embedded (FFPE) histology. Sectioned islets were stained using immunohistochemistry (IHC) with specific markers to assess islet integrity, β-cell function, and proliferation. Microscopic Digital Quantitative Pathological Analysis provided critical insights into the effects of IGF-2 and Peptide-20 on islet structure and function. […] These findings establish Peptide-20 as a strong candidate for novel diabetes therapies aimed at restoring islet function and reversing β-cell loss. […] Their ability to enhance β-cell survival and proliferation positions them as strong candidates for the development of novel regenerative therapies, paving the way for innovative drug development aimed at reversing diabetes and restoring endogenous insulin production.

The nature of data set [2]: Safety/toxicity: pathology of blood samples and tissue samples from thirty organs. It counts as in vivo. The conditions noted are these: end of 10 days of treatment, 24 days after termination, and 100 days after termination of 30 days of treatment.

Consider insulin-like growth factor 2 [IGF-2], for which, in data set [1], the “Free IGF-2 in the blood (peak)” value is 1 µg and the “Peak total concentration of IGF-2 in the blood” value is given as “about 16 μg”. Besides, the “Response to the glucose tolerance test (permanently cured mice)” value in the data set on STZ-treated mice (12,000 μg/kg/day for 5 or 10 days, test 50 days post-treatment, 2 grams/kg glucose, 180 minutes) was “fell between the glucose tolerance results from the literature for non-diabetic obese mice and non-diabetic lean mice”. For the same substance, in the data set with STZ-treated mice (12,000 μg/kg/day, test 50 days post-treatment, 2 grams/kg glucose), the “Glucose levels in the glucose tolerance test (Mouse 01, not permanently cured)” value is recorded as “higher than the normal obese mouse”. Also, in the data set on STZ-treated mice (six STZ mice treated with 12,000 μg/kg/day, four for 5 days and two for 10 days), the “Number of IGF-2-treated mice permanently cured” value is “Five”. The “Glucose level after administration” value with mice (glucose tolerance test in mice) is “decreased”. Also, the “Time after which the recovery in glucose levels began” value with mice (insulin 1 unit per kg, IGF-2 800 μg/kg, single dose) was “six”. Also, the “Islet cells (histological staining for glucagon and insulin)” value in the data set with NOD mice is reported as “fully functional islet cells”. The “Pancreatic islet regeneration, integrity and function” value with Human pancreatic islets is recorded as “significant regenerative potential”. The “Pathologies related to treatment in blood samples and tissue samples from thirty organs” value in data set [2] is “No pathologies were identified”.
